Data published in patent US7718673B2, “Isonipecotamides for the treatment of integrin-mediated disorders” (Ortho-McNeil Pharmaceutical, Inc., priority 1999, dated 2010).
Where two headings read alike, the source gives them in different places.

What was measured:
[1] = target: T1, Human αvβ3 (Homo sapiens, UniProt P05106+P06756); experiment: In vitro solid phase purified αvβ3 binding assay (vitronectin/αvβ3)
T1 construct: purchased Chemicon International Inc., Temecula, Calif
Experimental: In Vitro Solid Phase Purified αvβ3 Binding Assay
(§1) The vitronectin/αvβ3 binding assay methods were derived from Mehta et al. (Biochem J. 1998, 330, 861). Human αvβ3 (Chemicon International Inc., Temecula, Calif.), at a concentration of 1 μg/ml dissolved in Tris buffer (20 mM Tris, 1 mM CaCl2, […], 10 μM MnCl2, 150 mM NaCl), was immobilized on Immulon 96 well plates (Dynex Technologies, Chantilly, Va.) overnight at 4° C. Plates were washed and treated with blocking buffer (3% BSA in Tris buffer) for 2 h at 37° C. Plates were then rinsed 2 times with Tris buffer containing 0.3% BSA and 0.2% Tween20 (polyoxyethylenesorbitan monolaurate). Five minutes prior to the addition of 5 nM vitronectin (Sigma, St. Louis, Mo.), synthesized compounds were added to wells in duplicate. Each plate included c-RGDfV as an internal control. Following a 3 hour incubation at 37° C., plates were washed 5 times in assay buffer. An anti-human vitronectin IgG rabbit polyclonal antibody (Calbiochem, San Diego, Calif.) was added (1:2000) and plates were incubated for 1 hour at room temperature. VectaStain ABC peroxidase kit reagents (Vector Laboratories, Burlingame, Calif.) employing a biotin labeled anti-rabbit IgG, were utilized for detection of bound antibody. Plates were read at 490 nm on a Molecular Devices (Sunnyvale, Calif.) microplate reader.

[2] = target: RGD-affinity purified GPIIb/IIIa (Homo sapiens, UniProt P05106+P08514); experiment: In vitro solid phase purified GPIIb/IIIa binding assay (biotinylated fibrinogen); settings: fibrinogen binding to immobilized GPIIb/IIIa; read-out: IIb/IIIa IC50
Chain of RGD-affinity purified GPIIb/IIIa (P08514 32-887 limits assumed): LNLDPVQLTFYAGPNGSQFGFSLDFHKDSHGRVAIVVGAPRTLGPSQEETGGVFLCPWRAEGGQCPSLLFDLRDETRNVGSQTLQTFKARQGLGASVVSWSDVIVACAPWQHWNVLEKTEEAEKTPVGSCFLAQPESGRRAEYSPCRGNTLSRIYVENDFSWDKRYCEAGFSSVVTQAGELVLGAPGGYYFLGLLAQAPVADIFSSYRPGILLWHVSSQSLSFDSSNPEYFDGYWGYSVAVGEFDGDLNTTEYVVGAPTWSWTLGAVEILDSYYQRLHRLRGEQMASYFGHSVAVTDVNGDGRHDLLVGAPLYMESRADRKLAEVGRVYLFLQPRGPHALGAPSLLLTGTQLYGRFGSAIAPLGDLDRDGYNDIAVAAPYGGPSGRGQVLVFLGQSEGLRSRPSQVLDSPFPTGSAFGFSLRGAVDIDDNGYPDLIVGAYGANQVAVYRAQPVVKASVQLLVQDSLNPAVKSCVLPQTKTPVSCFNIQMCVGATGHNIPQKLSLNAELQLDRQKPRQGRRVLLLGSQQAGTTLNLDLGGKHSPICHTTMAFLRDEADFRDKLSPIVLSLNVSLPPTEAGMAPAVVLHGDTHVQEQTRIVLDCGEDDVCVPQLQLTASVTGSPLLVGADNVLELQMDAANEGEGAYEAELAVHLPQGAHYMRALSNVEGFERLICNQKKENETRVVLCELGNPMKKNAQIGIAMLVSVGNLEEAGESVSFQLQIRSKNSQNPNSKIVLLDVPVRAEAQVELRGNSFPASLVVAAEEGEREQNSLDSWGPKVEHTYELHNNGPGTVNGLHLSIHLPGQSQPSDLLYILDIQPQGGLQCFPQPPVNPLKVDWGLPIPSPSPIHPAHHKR
Chain of RGD-affinity purified GPIIb/IIIa (P08514 891-1039 partner limits assumed): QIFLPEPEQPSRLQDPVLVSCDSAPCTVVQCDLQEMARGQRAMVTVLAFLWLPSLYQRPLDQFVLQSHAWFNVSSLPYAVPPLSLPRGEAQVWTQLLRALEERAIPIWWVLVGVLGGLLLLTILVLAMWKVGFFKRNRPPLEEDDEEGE
Chain of RGD-affinity purified GPIIb/IIIa (P05106 27-788): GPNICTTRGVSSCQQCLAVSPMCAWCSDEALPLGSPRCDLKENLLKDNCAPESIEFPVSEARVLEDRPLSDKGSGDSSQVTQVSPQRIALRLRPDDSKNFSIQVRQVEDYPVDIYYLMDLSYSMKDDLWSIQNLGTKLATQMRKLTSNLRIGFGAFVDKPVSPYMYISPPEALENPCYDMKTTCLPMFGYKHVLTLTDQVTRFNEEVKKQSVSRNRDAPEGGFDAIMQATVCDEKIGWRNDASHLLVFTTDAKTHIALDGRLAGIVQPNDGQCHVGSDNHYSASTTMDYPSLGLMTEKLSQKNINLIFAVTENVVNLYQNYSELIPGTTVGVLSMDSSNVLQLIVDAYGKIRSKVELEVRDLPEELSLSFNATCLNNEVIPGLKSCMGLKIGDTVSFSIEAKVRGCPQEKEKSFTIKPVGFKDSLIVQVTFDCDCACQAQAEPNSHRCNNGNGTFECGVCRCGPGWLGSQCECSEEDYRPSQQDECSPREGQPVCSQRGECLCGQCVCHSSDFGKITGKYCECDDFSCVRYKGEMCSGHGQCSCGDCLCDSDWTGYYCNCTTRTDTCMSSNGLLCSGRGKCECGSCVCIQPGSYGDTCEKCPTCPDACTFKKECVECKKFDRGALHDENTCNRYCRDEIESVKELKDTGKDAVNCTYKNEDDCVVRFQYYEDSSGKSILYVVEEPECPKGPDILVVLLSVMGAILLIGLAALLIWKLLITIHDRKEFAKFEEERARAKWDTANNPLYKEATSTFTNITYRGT
Experimental: In Vitro Solid Phase Purified GP IIB/IIIA Binding Assay
The plate was covered and incubated overnight at 4° C. The GPIIb/IIIa solution was discarded and 150 μl of 5% BSA was added and incubated at RT for 1-3 h. The plate was washed extensively with modified Tyrodes buffer. Biotinylated fibrinogen (25 μl/well) at 2× final concentration was added to the wells that contain the test compounds (25 μl/well). The plate was covered and incubated at RT for 2-4 h. Twenty minutes prior to incubation completion, one drop of Reagent A (VectaStain ABC Horse Radish Peroxidase kit, Vector Laboratories, Inc.) and one drop Reagent B were added with mixing to 5 mL modified Tyrodes buffer mix and let stand. The ligand solution was discarded and the plate washed (5×200 μl/well) with modified Tyrodes buffer. Vecta Stain HRP-Biotin-Avidin reagent (50 μl/well, as prepared above) was added and incubated at RT for 15 min. The Vecta Stain solution was discarded and the wells washed (5×200 μl/well) with modified Tyrodes buffer. Developing buffer (10 mL of 50 mM citrate/phosphate buffer @ pH 5.3, 6 mg o-phenylenediamine, 6 μl 30% H2O2; 50 μl/well) was added and incubated at RT for 3-5 min, and then 2 NH2SO4 (50 μl/well) was added. The absorbance was read at 490 nm.

[3] = target: T2, human purified αvβ5 (Homo sapiens, UniProt P06756+P18084); experiment: In vitro solid phase purified αvβ5 binding assay (vitronectin/αvβ5); settings: for IC50: vitronectin binding to immobilized αvβ5; for inhibition at 5 µM: read-out: αvβ5 Percent inhibition at 5 μM
T2 construct: purchased Chemicon International, Inc
T2 sequence (P06756 31-889 limits assumed): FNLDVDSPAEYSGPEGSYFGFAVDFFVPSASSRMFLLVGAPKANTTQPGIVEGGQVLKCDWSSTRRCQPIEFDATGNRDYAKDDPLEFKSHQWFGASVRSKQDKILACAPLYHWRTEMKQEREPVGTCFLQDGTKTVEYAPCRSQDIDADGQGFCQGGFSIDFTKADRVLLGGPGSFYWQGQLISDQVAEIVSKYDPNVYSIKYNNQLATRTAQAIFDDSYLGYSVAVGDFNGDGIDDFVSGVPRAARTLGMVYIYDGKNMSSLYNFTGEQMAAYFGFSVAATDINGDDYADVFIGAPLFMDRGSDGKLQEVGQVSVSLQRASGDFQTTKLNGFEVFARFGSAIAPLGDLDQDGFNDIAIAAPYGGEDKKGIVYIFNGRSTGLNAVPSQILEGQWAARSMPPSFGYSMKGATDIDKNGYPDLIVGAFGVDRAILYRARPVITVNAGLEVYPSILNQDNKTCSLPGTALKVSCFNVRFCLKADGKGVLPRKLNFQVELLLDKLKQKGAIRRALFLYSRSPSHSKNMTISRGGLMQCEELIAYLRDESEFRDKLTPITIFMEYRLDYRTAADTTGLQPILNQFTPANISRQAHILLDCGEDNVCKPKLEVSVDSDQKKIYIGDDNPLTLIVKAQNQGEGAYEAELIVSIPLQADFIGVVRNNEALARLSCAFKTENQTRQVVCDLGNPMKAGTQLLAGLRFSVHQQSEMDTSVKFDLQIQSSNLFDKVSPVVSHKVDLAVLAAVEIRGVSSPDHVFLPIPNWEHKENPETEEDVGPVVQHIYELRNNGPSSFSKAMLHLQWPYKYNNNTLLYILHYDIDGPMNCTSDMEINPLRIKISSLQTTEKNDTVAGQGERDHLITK
T2 sequence (P06756 891-1048 partner limits assumed): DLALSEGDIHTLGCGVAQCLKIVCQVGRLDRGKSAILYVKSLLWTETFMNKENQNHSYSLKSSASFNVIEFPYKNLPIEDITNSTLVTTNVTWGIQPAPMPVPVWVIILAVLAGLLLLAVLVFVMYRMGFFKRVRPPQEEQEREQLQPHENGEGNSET
T2 sequence (P18084 24-799): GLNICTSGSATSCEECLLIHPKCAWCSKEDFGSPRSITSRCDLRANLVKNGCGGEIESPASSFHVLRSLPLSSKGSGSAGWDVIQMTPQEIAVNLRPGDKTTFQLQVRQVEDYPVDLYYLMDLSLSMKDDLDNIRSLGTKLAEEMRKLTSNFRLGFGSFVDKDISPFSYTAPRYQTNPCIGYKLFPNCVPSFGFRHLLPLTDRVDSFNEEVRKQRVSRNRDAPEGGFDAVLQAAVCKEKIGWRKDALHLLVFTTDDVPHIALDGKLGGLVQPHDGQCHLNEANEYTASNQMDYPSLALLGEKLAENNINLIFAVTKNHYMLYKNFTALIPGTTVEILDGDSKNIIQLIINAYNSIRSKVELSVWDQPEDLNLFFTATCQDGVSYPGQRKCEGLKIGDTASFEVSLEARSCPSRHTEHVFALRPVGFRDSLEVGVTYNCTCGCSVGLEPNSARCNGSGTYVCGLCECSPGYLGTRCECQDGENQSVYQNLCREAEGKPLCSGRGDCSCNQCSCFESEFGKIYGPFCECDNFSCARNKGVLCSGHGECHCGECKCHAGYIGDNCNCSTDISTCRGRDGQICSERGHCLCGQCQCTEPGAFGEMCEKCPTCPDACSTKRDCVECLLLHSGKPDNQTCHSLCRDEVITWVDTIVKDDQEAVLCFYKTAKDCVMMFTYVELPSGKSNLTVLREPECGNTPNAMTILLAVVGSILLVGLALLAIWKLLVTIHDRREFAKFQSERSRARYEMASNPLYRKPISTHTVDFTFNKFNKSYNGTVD
Experimental: as §1
In Vitro Solid Phase Purified αvβ5 Binding Assay
The vitronectin/αvβ5 binding assay method was performed in the same manner as the vitronectin/αvβ3 binding assay (EXAMPLE 64) immobilizing with 1 μg/ml of human purified αvβ5 (Chemicon International, Inc.) on to Immulon 96 well plates (Dynex Technologies) instead of αvβ3. All other aspects of the assay including buffers, reagents, and incubation times remain unchanged.

[4] = vitronectin binding to immobilized αvβ3, read-out: αvβ3 IC50

T1 sequence (P06756 31-889 limits assumed): as the sequence (P06756 31-889 limits assumed) above
T1 sequence (P06756 891-1048 partner limits assumed): as the sequence (P06756 891-1048 partner limits assumed) above
T1 sequence (P05106 27-788): as the sequence (P05106 27-788) above

## O=C(O)C[C@H](NC(=O)C1CCN(C(=O)CCCNC2=NCCN2)CC1)c1cnc2ccccc2c1 [Compound 1, β-[[[1-[4-[(4,5-dihydro-1H-imidazol-2-yl)amino]-1-oxobutyl]-4-piperidinyl]carbonyl]amino]-, (β^3S)-3-quinolinepropanoic acid]
[1]
  IC50: 3.7 nM
[2]
  IC50: 30 nM
[3]
  IC50: 25 nM

## O=C(N[C@@H](CNC(=O)C1CCN(C(=O)CCCNC2=NCCN2)CC1)C(=O)O)OCc1ccccc1 [Compound 2, 3-[[[1-[4-[(4,5-dihydro-1H-imidazol-2-yl)amino]-1-oxobutyl]-4-piperidinyl]carbonyl]amino]-N-[(phenylmethoxy)carbonyl]-L-alanine]
[1]; [4]
  IC50: 5.8 nM
[2]
  IC50: 8.9 nM
[3]
  IC50: 21 nM

## O=C(O)C[C@H](NC(=O)C1CCN(C(=O)CCCNc2ccccn2)CC1)c1cnc2ccccc2c1 [Compound 6, β-[[[1-[1-oxo-4-(2-pyridinylamino)butyl]-4-piperidinyl]carbonyl]amino]-, (β^3S)-3-quinolinepropanoic acid]
[1]; [4]
  IC50: 4 nM
[2]
  IC50: 460 nM
other
  melting point: 87 to 90 °C

## CC(CNC1=NCCN1)C(=O)N1CCC(C(=O)NC[C@H](NC(=O)OCc2ccccc2)C(=O)O)CC1 (stereo partly drawn) [Compound 16, 3-[[[1-[3-[(4,5-dihydro-1H-imidazol-2-yl)amino]-2-methyl-1-oxopropyl]-4-piperidinyl]carbonyl]amino]-N-[(phenylmethoxy)carbonyl]-L-alanine]
[1]; [4]
  IC50: 19 nM
[2]
  IC50: 18 nM
[3]
  IC50: 38 nM

## COc1ccc(C(CC(=O)O)NC(=O)C2CCN(C(=O)CCCNC3=NCCN3)CC2)cc1OC (stereo not drawn) [Compound 34]
[1]; [4]
  IC50: 29 nM
[2]
  IC50: 1500 nM
[3]
  IC50: > 5000 nM

## COC(=O)C[C@H](NC(=O)C1CCN(C(=O)CCCNC2=NCCN2)CC1)c1cnc2ccccc2c1 [Compound 44]
[1]; [4]
  IC50: 28 nM
[2]
  IC50: 360 nM
[3]
  IC50: 2900 nM

## CCN(CC)C(=O)COC(=O)CC(NC(=O)C1CCN(C(=O)CCCNC2=NCCN2C(=O)OC(C)(C)C)CC1)c1cnc2ccccc2c1 (stereo not drawn) [Compound 45]
[1]; [4]
  IC50: 3700 nM
[2]
  IC50: 14000 nM
[3]
  inhibition at 5 µM: 40%

## CCN(CC)C(=O)COC(=O)CC(NC(=O)C1CCN(C(=O)CCCNC2=NCCN2)CC1)c1cnc2ccccc2c1 (stereo not drawn) [Compound 46]
[1]; [4]
  IC50: 150 nM
[2]
  IC50: 1600 nM
[3]
  IC50: > 5000 nM

## CC(CCNC1=NCCN1)C(=O)N1CCC(C(=O)N[C@@H](CC(=O)O)Cc2ccccc2)CC1 (stereo partly drawn) [Compound 48]
[1]; [4]
  IC50: 510 nM
[2]
  IC50: 1100 nM

## C=CC(CCC(=O)N1CCC(C(=O)NC[C@H](NC(=O)OCc2ccccc2)C(=O)O)CC1)NC1=NCCN1 (stereo partly drawn) [Compound 49]
[1]; [4]
  IC50: 39 nM
[2]
  IC50: 12 nM
[3]
  IC50: 210 nM

## C=CC(N)CCC(=O)N1CCC(C(=O)NC[C@H](NC(=O)OCc2ccccc2)C(=O)O)CC1 (stereo partly drawn) [Compound 50, 3-[[[1-(4-amino-1-oxo-5-hexenyl)-4-piperidinyl]carbonyl]amino]-N-[(phenylmethoxy)carbonyl]-L-alanine]
[1]; [4]
  IC50: 3900 nM
[2]
  IC50: 7.4 nM
[3]
  inhibition at 5 µM: 38%

## COC(=O)[C@H](CNC(=O)C1CCN(C(=O)C(C)CNC2=NCCN2)CC1)NC(=O)OCc1ccccc1 (stereo partly drawn) [Compound 51]
[1]; [4]
  IC50: 270 nM
[2]
  IC50: 290 nM
[3]
  IC50: 2000 nM

## CC(CNC1=NCCN1)C(=O)N1CCC(C(=O)N[C@@H](CC(=O)O)c2cccnc2)CC1 (stereo partly drawn) [Compound 52]
[1]; [4]
  IC50: 250 nM
[2]
  IC50: 2700 nM
[3]
  IC50: 760 nM

## O=C(N[C@@H](CNC(=O)C1CCN(C(=O)c2ccc(CNC3=NCCN3)cc2)CC1)C(=O)O)OCc1ccccc1 [Compound 53, 3-[[[1-[4-[[(4,5-dihydro-1H-imidazol-2-yl)amino]methyl]benzoyl]-4-piperidinyl]carbonyl]amino]-N-[(phenylmethoxy)carbonyl]-L-alanine]
[1]; [4]
  IC50: 570 nM
[2]
  IC50: 1.5 nM

## CC(CNC1=NCCN1)CC(=O)N1CCC(C(=O)NC[C@H](NC(=O)OCc2ccccc2)C(=O)O)CC1 (stereo partly drawn) [Compound 54]
[1]; [4]
  IC50: 72 nM
[2]
  IC50: 13 nM

## O=C(N[C@@H](CNC(=O)C1CCN(C(=O)/C=C/CNC2=NCCN2)CC1)C(=O)O)OCc1ccccc1 [Compound 55]
[1]; [4]
  IC50: 12 nM
[2]
  IC50: 26 nM

## NCCCC(=O)N1CCC(C(=O)NC[C@H](NC(=O)OCc2ccccc2)C(=O)O)CC1 [Compound 56]
[1]; [4]
  IC50: > 5000 nM
[2]
  IC50: 49 nM

## O=C(N[C@H](CNC(=O)C1CCN(C(=O)CCCNC2=NCCS2)CC1)C(=O)O)OCc1ccccc1 [Compound 57]
[1]; [4]
  IC50: 350 nM
[2]
  IC50: 130 nM

## N=C(N)NOCCC(=O)N1CCC(C(=O)NC[C@H](NC(=O)OCc2ccccc2)C(=O)O)CC1 [Compound 58]
[1]; [4]
  IC50: 40 nM
[2]
  IC50: 260 nM
[3]
  IC50: 71 nM

## O=C(NCCCC(=O)N1CCC(C(=O)NC[C@H](NC(=O)OCc2ccccc2)C(=O)O)CC1)NCc1ccccc1 [Compound 59]
[1]; [4]
  IC50: 160 nM
[2]
  IC50: 510 nM

## O=C(N[C@@H](CNC(=O)C1CCN(C(=O)CCONC2=NCCN2)CC1)C(=O)O)OCc1ccccc1 [Compound 60]
[1]; [4]
  IC50: 27 nM
[2]
  IC50: 190 nM
[3]
  IC50: 86 nM

## O=C(O)CC(NC(=O)C1CCN(C(=O)CCONC2=NCCN2)CC1)c1ccc2c(c1)OCO2 (stereo not drawn) [Compound 61, β-[[[1-[3-[[(4,5-dihydro-1H-imidazol-2-yl)amino]oxy]-1-oxopropyl]-4-piperidinyl]carbonyl]amino]-1,3-benzodioxole-5-propanoic acid]
[1]; [4]
  IC50: 180 nM
[2]
  IC50: 2700 nM

## O=C(O)CC(NC(=O)C1CCN(C(=O)CCCNc2ccccn2)CC1)c1ccc2c(c1)OCO2 (stereo not drawn) [Compound 62, β-[[[1-[1-oxo-4-(2-pyridinylamino)butyl]-4-piperidinyl]carbonyl]amino]-1,3-benzodioxole-5-propanoic acid]
[1]; [4]
  IC50: > 500 nM
[2]
  IC50: 380 nM
